Results reported in patent US9833497B2, “Human originated EGF domain proteins and use of the same” (CHENGDU SOURCEBIO LIMITED-LIABILITY COMPANY, priority 2013, dated 2017).

Columns and labels:
Assay type in all cases: cell-based
Klebsiella pneumonia = assay: MIC against Gram-negative bacteria: Klebsiella pneumonia; details: 5×10^5 CFU/mL
Summary of the method: (§1)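 Inocula prepared by growing LB cultures at 37° C to 0.5 McFarland, centrifuging at 4000×g, and resuspending in fresh medium. Final density 5×10^5 CFU/mL per well with two-fold dilutions of purified EGF domain protein; shaking incubation at 37° C.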

Citrobacter diversus = assay: MIC against Gram-negative bacteria: Citrobacter diversus; details: 5×10^5 CFU/mL
Summary of the method: as §1

Serratia marcescens = assay: MIC against Gram-negative bacteria: Serratia marcescens; details: 5×10^5 CFU/mL
Summary of the method: as §1

Enterobacter cloacae = assay: MIC against Gram-negative bacteria: Enterobacter cloacae; details: 5×10^5 CFU/mL
Summary of the method: as §1

E. coli BL21 = assay: MIC against Gram-negative bacteria: E. coli BL21; details: 5×10^5 CFU/mL
Summary of the method: as §1

Proteus vulgaris = assay: MIC against Gram-negative bacteria: Proteus vulgaris; details: 5×10^5 CFU/mL
Summary of the method: as §1

Proteus mirabilis = assay: MIC against Gram-negative bacteria: Proteus mirabilis; details: 5×10^5 CFU/mL
Summary of the method: as §1

E. coli DH5α = assay: Antibacterial activity: MIC and growth curve against E. coli DH5α in 96-well plate; details: minimal inhibitory concentration against E. coli DH5α; 96-well plate, 5×10^5 CFU/mL, 37° C., judged after 8 h
Summary of the method: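 MIC taken as lowest protein level with no bacterial growth, tracked by A600 every 30 min during 37 °C, 175 rpm culture. Two-fold protein series 50-12.5 μg/mL final, triplicate wells, against 5×10^5 CFU/mL of LB-washed mid-log cells.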

Aeromonas hydrophila = assay: MIC against Gram-negative bacteria: Aeromonas hydrophila; details: 5×10^5 CFU/mL
Summary of the method: as §1

Moraxella catarrhalis = assay: MIC against Gram-negative bacteria: Moraxella catarrhalis; details: 5×10^5 CFU/mL
Summary of the method: as §1

Pseudomonas aeruginosa = assay: MIC against Gram-negative bacteria: Pseudomonas aeruginosa; details: 5×10^5 CFU/mL
Summary of the method: as §1

[1] = E. coli BL21, 10 h cultivation at 37° C.
[2] = Klebsiella pneumonia, 96-well plate, 37° C., 10 h
[3] = Citrobacter diversus, 96-well plate, 37° C., 10 h
[4] = Serratia marcescens, 96-well plate, 37° C., 10 h
[5] = Enterobacter cloacae, 96-well plate, 37° C., 10 h
[6] = E. coli BL21, 96-well plate, 37° C., 10 h
[7] = Proteus vulgaris, 96-well plate, 37° C., 10 h
[8] = Proteus mirabilis, 96-well plate, 37° C., 10 h
[9] = Aeromonas hydrophila, 96-well plate, 37° C., 10 h
[10] = Moraxella catarrhalis, 96-well plate, 37° C., 10 h
[11] = Pseudomonas aeruginosa, 96-well plate, 37° C., 10 h

PRT735 (GEENCNVNNGGCAQKCQMVRGAVQCTCHTGYRLTEDGHTCQ; listed as Homo sapiens)
12.5 µg/mL: MIC E. cloacae (Enterobacter cloacae; 96-well plate, 37° C., 10 h) | MIC P. mirabilis (Proteus mirabilis; 96-well plate, 37° C., 10 h) | MIC (E. coli DH5α) | MIC P. aeruginosa (Pseudomonas aeruginosa; 96-well plate, 37° C., 10 h)
50 µg/mL: MIC C. diversus (Citrobacter diversus; 96-well plate, 37° C., 10 h) | MIC E. coli BL21 (E. coli BL21; 96-well plate, 37° C., 10 h) | MIC P. vulgaris (Proteus vulgaris; 96-well plate, 37° C., 10 h)
25 µg/mL: MIC K. pneumonia (Klebsiella pneumonia; 96-well plate, 37° C., 10 h) | MIC S. marcescens (Serratia marcescens; 96-well plate, 37° C., 10 h) | MIC A. hydrophila (Aeromonas hydrophila; 96-well plate, 37° C., 10 h) | MIC M. catarrhalis (Moraxella catarrhalis; 96-well plate, 37° C., 10 h)

PRT1458 (CNCHLSGALNETCHLVTGQCFCKQFVTGSKCDACVPSASHLDVNNLLGCSK; listed as Homo sapiens)
12.5 µg/mL: MIC against K. pneumonia (Klebsiella pneumonia; Klebsiella pneumonia, 10 h cultivation at 37° C.) | MIC against E. coli BL21 (E. coli BL21; [1]) | MIC against P. mirabilis (Proteus mirabilis; Proteus mirabilis, 10 h cultivation at 37° C.) | MIC (E. coli DH5α)
50 µg/mL: MIC against S. marcescens (Serratia marcescens; Serratia marcescens, 10 h cultivation at 37° C.) | MIC against A. hydrophila (Aeromonas hydrophila; Aeromonas hydrophila, 10 h cultivation at 37° C.)
25 µg/mL: MIC against C. diversus (Citrobacter diversus; Citrobacter diversus, 10 h cultivation at 37° C.) | MIC against E. cloacae (Enterobacter cloacae; Enterobacter cloacae, 10 h cultivation at 37° C.) | MIC against P. vulgaris (Proteus vulgaris; Proteus vulgaris, 10 h cultivation at 37° C.) | MIC against M. catarrhalis (Moraxella catarrhalis; Moraxella catarrhalis, 10 h cultivation at 37° C.) | MIC against P. aeruginosa (Pseudomonas aeruginosa; Pseudomonas aeruginosa, 10 h cultivation at 37° C.)

PRT153 (DCLACQGGSQRPCSGNGHCSGDGSRQGDGSCRCHMGYQGPLCT; listed as Homo sapiens)
12.5 µg/mL: MIC (μg/mL) K. pneumonia (Klebsiella pneumonia; K. pneumonia, 10 h cultivation at 37° C.) | MIC (μg/mL) P. vulgaris (Proteus vulgaris; P. vulgaris, 10 h cultivation at 37° C.) | MIC (E. coli DH5α) | MIC (μg/mL) M. catarrhalis (Moraxella catarrhalis; M. catarrhalis, 10 h cultivation at 37° C.)
100 µg/mL: MIC (μg/mL) E. coli BL21 (E. coli BL21; [1])
25 µg/mL: MIC (μg/mL) C. diversus (Citrobacter diversus; C. diversus, 10 h cultivation at 37° C.) | MIC (μg/mL) E. cloacae (Enterobacter cloacae; E. cloacae, 10 h cultivation at 37° C.)
50 µg/mL: MIC (μg/mL) S. marcescens (Serratia marcescens; S. marcescens, 10 h cultivation at 37° C.) | MIC (μg/mL) P. mirabilis (Proteus mirabilis; P. mirabilis, 10 h cultivation at 37° C.) | MIC (μg/mL) A. hydrophila (Aeromonas hydrophila; A. hydrophila, 10 h cultivation at 37° C.) | MIC (μg/mL) P. aeruginosa (Pseudomonas aeruginosa; P. aeruginosa, 10 h cultivation at 37° C.)

PRT1271 (DTNECSINNGGCQQVCVNTVGSYECQCHPGYKLHWNKKDCV; listed as Homo sapiens)
12.5 µg/mL: MIC against C. diversus (Citrobacter diversus; [3]) | MIC against S. marcescens (Serratia marcescens; [4]) | MIC against E. cloacae (Enterobacter cloacae; [5]) | MIC against P. mirabilis (Proteus mirabilis; [8]) | MIC against P. aeruginosa (Pseudomonas aeruginosa; [11])
25 µg/mL: MIC (E. coli DH5α)
50 µg/mL: MIC against K. pneumonia (Klebsiella pneumonia; [2]) | MIC against E. coli BL21 (E. coli BL21; [6]) | MIC against P. vulgaris (Proteus vulgaris; [7]) | MIC against A. hydrophila (Aeromonas hydrophila; [9]) | MIC against M. catarrhalis (Moraxella catarrhalis; [10])

PRT518 (CACPLNIPSNNFSPTCHLDRSLGLICDGCPVGYTGPRCERCAEGYFGQPSVPGGSCQP; listed as Homo sapiens)
12.5 µg/mL: MIC against C. diversus (Citrobacter diversus; 96-well plate, 37° C., 10 h) | MIC against S. marcescens (Serratia marcescens; 96-well plate, 37° C., 10 h) | MIC against P. mirabilis (Proteus mirabilis; 96-well plate, 37° C., 10 h) | MIC against P. aeruginosa (Pseudomonas aeruginosa; 96-well plate, 37° C., 10 h)
50 µg/mL: MIC against E. cloacae (Enterobacter cloacae; 96-well plate, 37° C., 10 h) | MIC (E. coli DH5α)
25 µg/mL: MIC against K. pneumonia (Klebsiella pneumonia; 96-well plate, 37° C., 10 h) | MIC against E. coli BL21 (E. coli BL21; 96-well plate, 37° C., 10 h) | MIC against P. vulgaris (Proteus vulgaris; 96-well plate, 37° C., 10 h) | MIC against A. hydrophila (Aeromonas hydrophila; 96-well plate, 37° C., 10 h) | MIC against M. catarrhalis (Moraxella catarrhalis; 96-well plate, 37° C., 10 h)

PRT1223 (LEGACTRSPCQHGGTCMDYWSWQQCHCKEGLTGKYCE; listed as Homo sapiens)
12.5 µg/mL: MIC against S. marcescens (Serratia marcescens; [4]) | MIC against P. mirabilis (Proteus mirabilis; [8]) | MIC against P. aeruginosa (Pseudomonas aeruginosa; [11])
100 µg/mL: MIC against A. hydrophila (Aeromonas hydrophila; [9])
25 µg/mL: MIC against C. diversus (Citrobacter diversus; [3]) | MIC against E. cloacae (Enterobacter cloacae; [5]) | MIC against E. coli BL21 (E. coli BL21; [6])
50 µg/mL: MIC against K. pneumonia (Klebsiella pneumonia; [2]) | MIC against P. vulgaris (Proteus vulgaris; [7]) | MIC (E. coli DH5α) | MIC against M. catarrhalis (Moraxella catarrhalis; [10])
